{"source": "paper PMC6408865", "about": "(Pharmacology Research & Perspectives, 2019)", "key": {"plasma TAG [1]": {"test_system": "plasma TAG", "settings": "human SAD OLTT study, iAUC analysis of plasma TAG vs plasma concentration at start of meal test; read-out: in vivo IC50, previously published; cited from earlier work"}, "[2]": {"test_system": "DGAT1 (in liver microsomes)", "parameters": "method as in Barlind_2012", "settings": "human liver microsomes; ref Barlind_2012; read-out: In vitro potency (IC50) against DGAT1; cited from earlier work"}, "[3]": {"settings": "human; cited from earlier work"}, "plasma TAG [4]": {"test_system": "plasma TAG", "assay": "PK/PD model of plasma TAG after Oral Lipid Tolerance Test (standardized mixed meal)"}, "[5]": {"test_system": "DGAT1 (in liver microsomes)", "parameters": "method as in Barlind_2012", "settings": "mouse liver microsomes; ref Barlind_2012; read-out: In vitro potency (IC50) against DGAT1; cited from earlier work"}, "[6]": {"assay": "PK model of AZD7687 plasma concentrations during mouse OLTT (1-compartment)", "format": "in vivo", "protocol": "Oral Lipid Tolerance Test in the mouse was carried out in a similar way to rats.\n(§1) Full description of all the PK models is provided in supplementary section S1.\nAs PK data was only collected for 4h post dose, the ability to fit complex PK models was limited. As with the rat, the aim of the PK fitting was to describe the kinetics of the compound during the OLTT instead of a full characterization of the PK properties of the compound. […] Inter-individual variability was estimated on CL and V parameters according to a log-normal distribution of individual parameters. Correlation between Cl and V parameters was allowed. […] Residual error was characterized with a proportional error model."}, "plasma TAG [7]": {"test_system": "plasma TAG", "parameters": "method as in PMID 23116186", "settings": "cited from earlier work"}, "[8]": {"settings": "mouse plasma; cited from earlier work"}, "[9]": {"assay": "Population PK model of AZD7687 plasma concentrations in SAD and MAD studies (2-compartment, first order absorption)", "format": "in vivo", "settings": "human", "protocol": "Full details of the study protocols have previously been reported by Denison et al14 for Single Ascending Dose study (SAD) and Denison et al16 for the Multiple Ascending Dose Study (MAD). In brief, in the SAD, 80 healthy male subjects were enrolled.\nas §1\nModels were implemented using nonlinear mixed effects modeling in Phoenix NLME, version 1.3 (Certara). The analysis was conducted using the first order conditional estimation (FOCE‐ELS) during the sequential and simultaneous analysis (the expectation maximization method (QRPEM) was used for the simultaneous fitting of the human data due to speed and ability to converge).\nInter-individual variability was estimated on CL, V1, V2 and ka parameters according to a log-normal distribution of individual parameters. […] Residual error was characterized with a proportional plus additive error model."}, "[10]": {"settings": "rat plasma; cited from earlier work"}, "[11]": {"test_system": "HuTu 80 (Human gastrointestinal tumor cell line)", "parameters": "method as in Barlind_2012", "settings": "HuTu 80 cells; ref Barlind_2012; read-out: In vitro potency (IC50) in HuTu 80; cited from earlier work"}, "[12]": {"assay": "PK model of AZD7687 plasma concentrations during rat OLTT (1-compartment)", "format": "in vivo", "protocol": "(§2) Full description of the OLTT in the rat has been published previously.17 In brief, 53 male Han‐Wistar rats (∼230 g), previously maintained on a chow diet, were fasted for 14 hours. […] Six remaining animals were kept untreated and served as naive controls.\nas §1\nAs PK data was only collected for 11h post dose, the ability to fit complex PK models was limited. The aim of the PK fitting was to describe the kinetics of the compound during the OLTT instead of a full characterization of the PK properties of the compound. […] Inter-individual variability was estimated on CL and V parameters according to a log-normal distribution of individual parameters. […] Residual error was characterized with a proportional plus additive error model."}, "[13]": {"test_system": "DGAT1 (in liver microsomes)", "parameters": "method as in Barlind_2012", "settings": "rat liver microsomes; ref Barlind_2012; read-out: In vitro potency (IC50) against DGAT1; cited from earlier work"}, "plasma TAG [14]": {"test_system": "plasma TAG", "assay": "PK/PD model of plasma TAG after Oral Lipid Tolerance Test (Intralipos 20%)"}, "[15]": {"parameters": "method as in PMID 23116186", "settings": "human plasma; cited from earlier work"}, "plasma TAG [16]": {"test_system": "plasma TAG", "assay": "PK/PD model of plasma TAG after Oral Lipid Tolerance Test (corn oil)", "settings": "rat OLTT, free plasma concentration, read-out: IC50 (free in vivo IC50, inhibition of exogenous TAG contribution to plasma)", "protocol": "as §2\nBiological plausibility combined with stable parameter estimation was used in the evaluation of different potential PK/PD models to help select the optimal one. The key components of the final PK/PD TAG model are described in Figure 1. The introduction of exogenous TAG into the system is represented by a first order process from the lipid depot compartment (assumed to be the gut) to the central compartment (plasma). A lag time to accommodate the time delay from ingestion of the fatty meal to the resulting increase in plasma TAG was needed. In addition, there is an endogenous production and removal of TAG from plasma described with a turnover model controlled by the turnover rate (kin) (production) and the fractional turnover rate (kout) (loss). Turnover model was reparameterized using the relationship of kin to baseline plasma TAG (R0) (R0 = kin/kout) to increase numerical stability.\nKaTAG is the absorption rate of exogenous TAG into plasma, VTAG is the volume of distribution of exogenous TAG, and TlagTAG is the time delay for the absorption of TAG from the SMM. […]"}, "[17]": {"settings": "using free concentrations in plasma"}}, "note": "pIC50: −log10 of the molar value. Where two headings read alike, the source gives them in different places."}
{"smiles": "Cc1nc(C)c(-c2ccc(C3CCC(CC(=O)O)CC3)cc2)nc1C(N)=O", "note": "(stereo not drawn) [AZD7687]", "values": [{"measurement": "pIC50", "setting": "plasma TAG [1]", "value": 7.70}, {"measurement": "pIC50", "setting": "[2]", "value": 7.15}, {"measurement": "side effects leading to stop of clinical development", "setting": "[3]", "value": "intolerable side effects"}, {"measurement": "pIC50", "setting": "plasma TAG [4]; Homo sapiens, po, read-out: IC50 (free in vivo IC50, inhibition of exogenous TAG contribution to plasma), human OLTT, free plasma concentration", "value": 8.10}, {"measurement": "pIC50", "setting": "plasma TAG [4]; read-out: IC50 (free in vivo IC50, inhibition of exogenous TAG contribution to plasma), human OLTT, free plasma concentration", "value": 8.11}, {"measurement": "pIC50", "setting": "[5]", "value": 7.00}, {"measurement": "V", "setting": "[6]; Table 1, free concentrations", "value": 13.14, "unit": "L"}, {"measurement": "CL/F", "setting": "[6]; male, ICR, oral, supplement, free concentrations in plasma, read-out: tvCl (apparent clearance) (converted)", "value": 36.2, "unit": "mL/min/kg"}, {"measurement": "Vd", "setting": "[6]; male, ICR, oral, supplement, free concentrations in plasma, read-out: tvV (apparent volume of distribution)", "value": 13.1, "unit": "L/kg"}, {"measurement": "clearance", "setting": "[6]; male, ICR, plasma, oral, Table 1, free concentrations", "value": 36.2, "unit": "mL/min"}, {"measurement": "pIC50", "setting": "plasma TAG [7]; rat OLTT study, single time point data for plasma TAG and PK, read-out: in vivo IC50, previously published", "value": 7.38}, {"measurement": "effect on TAG excursion after OLTT", "setting": "plasma TAG [7]; rats, exposure dependant", "value": "reduces the TAG excursion"}, {"measurement": "free fraction (fu)", "setting": "[8]", "value": 0.1}, {"measurement": "Cl (tvCL, apparent clearance)", "setting": "[9]; [17]", "value": 28.1, "unit": "L/h"}, {"measurement": "V2 (tvV2, peripheral volume of distribution)", "setting": "[9]; [17]", "value": 136.8, "unit": "L"}, {"measurement": "Tmax", "setting": "[9]; male, plasma, post dose, oral, read-out: T max in plasma", "value": "≤ 1", "unit": "h"}, {"measurement": "Vd", "setting": "[9]; male, oral, using free concentrations in plasma, read-out: V (tvV1, central volume of distribution)", "value": 320, "unit": "L"}, {"measurement": "free fraction (fu)", "setting": "[10]", "value": 0.03}, {"measurement": "pIC50", "setting": "[11]", "value": 8.00}, {"measurement": "IIV V", "setting": "[12]; in vivo", "value": 11.7, "unit": "%"}, {"measurement": "CL/F", "setting": "[12]; male, Han-Wistar, oral, supplement, free concentrations in plasma, read-out: tvCl (apparent clearance) (converted)", "value": 12.2, "unit": "mL/min/kg"}, {"measurement": "clearance", "setting": "[12]; male, Han-Wistar, plasma, oral, Table 1, free concentrations", "value": 12.2, "unit": "mL/min"}, {"measurement": "pIC50", "setting": "[13]", "value": 6.82}, {"measurement": "pIC50", "setting": "plasma TAG [14]; Mus musculus, po, read-out: IC50 (free in vivo IC50, inhibition of exogenous TAG contribution to plasma), mouse OLTT, free plasma concentration", "value": 7.09}, {"measurement": "pIC50", "setting": "plasma TAG [14]; read-out: IC50 (free in vivo IC50, inhibition of exogenous TAG contribution to plasma), mouse OLTT, free plasma concentration", "value": 7.10}, {"measurement": "free fraction (fu)", "setting": "[15]", "value": 0.055}, {"measurement": "pIC50", "setting": "plasma TAG [16]", "value": 6.79}]}
